# Test results taken from patent publication US11077115B2, “Rorgamma modulators and uses thereof” (Genfit, priority 2017, dated 2021).
# Structures can show the parent of a compound that is named as a salt.
row,SMILES,melting point
1,"Cc1ccc(C(NC(=O)C(C)(C)c2ccc(N3CCS(=O)(=O)CC3)cc2)c2ccc(C)o2)c(C)c1 (centres unmarked) (as salt: HCl) [Cpd. 40, N-[(2,4-dimethylphenyl)(5-methylfuran-2-yl)methyl]-2-[4-(1,1-dioxo-1-thiomorpholin-4-yl)phenyl]-2-methylpropanamide]",67 °C
2,"Cc1ccc(C(NC(=O)C2(c3ccc(N4CCS(=O)(=O)CC4)cc3)CCC2)c2ccc(C)o2)c(C)c1 (centres unmarked) (as salt: HCl) [Cpd. 41, N-[(2,4-dimethylphenyl)(5-methylfuran-2-yl)methyl]-1-[4-(1,1-dioxo-1-thiomorpholin-4-yl)phenyl]cyclobutane-1-carboxamide]",79 °C
3,"Cc1ccc(C(NC(=O)Cc2cnc(N3CCS(=O)(=O)CC3)nc2C)c2ccc(C)o2)c(C)c1 (centres unmarked) (as salt: HCl) [Cpd. 42, N-[(2,4-dimethylphenyl)(5-methylfuran-2-yl)methyl]-2-[2-(1,1-dioxo-1-thiomorpholin-4-yl)-4-methylpyrimidin-5-yl]acetamide]",211 °C
4,"Cc1ccc(C(NC(=O)Cc2ccc(O)c(N3CCS(=O)(=O)CC3)c2)c2ccc(C)o2)c(C)c1 (centres unmarked) (as salt: HCl) [Cpd. 43, N-[(2,4-dimethylphenyl)(5-methylfuran-2-yl)methyl]-2-[3-(1,1-dioxo-1-thiomorpholin-4-yl)-4-hydroxyphenyl]acetamide]",146 °C
5,"COc1ccc(C(NC(=O)C2(c3ccc(N4CCS(=O)(=O)CC4)cc3)CC2)c2ccc(C)o2)c(C)c1 (centres unmarked) (as salt: HCl) [Cpd. 44, 1-[4-(1,1-dioxo-1-thiomorpholin-4-yl)phenyl]-N-[(4-methoxy-2-methylphenyl)(5-methylfuran-2-yl)methyl]cyclopropane-1-carboxamide]",77 °C
6,"COc1ccc(C(NC(=O)Cc2cnc(N3CCS(=O)(=O)CC3)nc2)c2ccc(C)o2)c(N2CCCCCC2)c1 (centres unmarked) (as salt: HCl) [Cpd. 45, N-{[2-(azepan-1-yl)-4-methoxyphenyl](5-methylfuran-2-yl)methyl}-2-[2-(1,1-dioxo-1-thiomorpholin-4-yl)pyrimidin-5-yl]acetamide]",106 °C
7,"COc1ccc(C(NC(=O)C2(c3ccc(N4CCS(=O)(=O)CC4)cc3)CC2)c2ccc(C)o2)c(N2CCCCCC2)c1 (centres unmarked) (as salt: HCl) [Cpd. 46, N-{[2-(azepan-1-yl)-4-methoxyphenyl](5-methylfuran-2-yl)methyl}-1-[4-(1,1-dioxo-1-thiomorpholin-4-yl)phenyl]cyclopropane-1-carboxamide]",90 °C
8,"Cc1ccc(C(NC(=O)Cc2ccc(N3CCS(=O)(=O)CC3)cn2)c2ccc(C)o2)c(N2CCCCC2)c1 (centres unmarked) (as salt: HCl) [Cpd. 47, 2-[5-(1,1-dioxo-1-thiomorpholin-4-yl)pyridin-2-yl]-N-{[4-methyl-2-(piperidin-1-yl)phenyl](5-methylfuran-2-yl)methyl}acetamide]",102 °C
9,"Cc1ccc(C(NC(=O)C2(c3cnc(N4CCS(=O)(=O)CC4)nc3)CC2)c2ccc(C)o2)c(C)c1 (centres unmarked) (as salt: HCl) [Cpd. 48, N-[(2,4-dimethylphenyl)(5-methylfuran-2-yl)methyl]-1-[2-(1,1-dioxo-1-thiomorpholin-4-yl)pyrimidin-5-yl]cyclopropane-1-carboxamide]",82 °C
10,"Cc1ccc(C(NC(=O)Cc2cnc(N3CCS(=O)(=O)CC3)nc2)c2ccc(Cl)cc2Cl)o1 (centres unmarked) (as salt: HCl) [Cpd. 50, N-[(2,4-dichlorophenyl)(5-methylfuran-2-yl)methyl]-2-[2-(1,1-dioxo-1-thiomorpholin-4-yl)pyrimidin-5-yl]acetamide]",215 °C
11,"Cc1ccc(C(NC(=O)Cc2cnc(N3CCS(=O)(=O)CC3)nc2)c2ccc(C)o2)c(Cl)c1 (centres unmarked) (as salt: HCl) [Cpd. 51, N-[(2-chloro-4-methylphenyl)(5-methylfuran-2-yl)methyl]-2-[2-(1,1-dioxo-1-thiomorpholin-4-yl)pyrimidin-5-yl]acetamide]",208 °C
12,"Cc1ccc(C(NC(=O)C2(c3cnc(N4CCS(=O)(=O)CC4)nc3)CC2)c2ccc(C)o2)c(Cl)c1 (centres unmarked) (as salt: HCl) [Cpd. 52, N-[(2-chloro-4-methylphenyl)(5-methylfuran-2-yl)methyl]-1-[2-(1,1-dioxo-1-thiomorpholin-4-yl)pyrimidin-5-yl]cyclopropane-1-carboxamide]",98 °C
13,"Cc1ccc(C(NC(=O)C2(c3cnc(N4CCS(=O)(=O)CC4)nc3)CC2)c2ccc(Cl)cc2C)o1 (centres unmarked) (as salt: HCl) [Cpd. 53, N-[(4-chloro-2-methylphenyl)(5-methylfuran-2-yl)methyl]-1-[2-(1,1-dioxo-1-thiomorpholin-4-yl)pyrimidin-5-yl]cyclopropane-1-carboxamide]",162 °C
14,"Cc1ccc(C(NC(=O)C2(c3cnc(N4CCS(=O)(=O)CC4)nc3)CC2)c2ccc(Cl)cc2Cl)o1 (centres unmarked) (as salt: HCl) [Cpd. 54, N-[(2,4-dichlorophenyl)(5-methylfuran-2-yl)methyl]-1-[2-(1,1-dioxo-1-thiomorpholin-4-yl)pyrimidin-5-yl]cyclopropane-1-carboxamide]",145 °C
15,"Cc1ccc(C(NC(=O)C2(c3ccc(N4CCS(=O)(=O)CC4)cc3)CCC2)c2ccc(C)o2)c(N2CCCCC2)c1 (centres unmarked) (as salt: HCl) [Cpd. 55, 1-[4-(1,1-dioxo-1-thiomorpholin-4-yl)phenyl]-N-{[4-methyl-2-(piperidin-1-yl)phenyl](5-methylfuran-2-yl)methyl}cyclobutane-1-carboxamide]",87 °C
16,"COc1ccc(C(NC(=O)C2(c3cnc(N4CCS(=O)(=O)CC4)nc3)CC2)c2ccc(C)o2)c(C)c1 (centres unmarked) (as salt: HCl) [Cpd. 57, 1-[2-(1,1-dioxo-1-thiomorpholin-4-yl)pyrimidin-5-yl]-N-[(4-methoxy-2-methylphenyl)(5-methylfuran-2-yl)methyl]cyclopropane-1-carboxamide]",101 °C
17,"Cc1ccc(C(NC(=O)Cc2ccc(N3CCS(=O)(=O)CC3)c(O)c2)c2ccc(C)o2)c(N2CCCCC2)c1 (centres unmarked) (as salt: HCl) [Cpd. 61, 2-[4-(1,1-dioxo-1-thiomorpholin-4-yl)-3-hydroxyphenyl]-N-{[4-methyl-2-(piperidin-1-yl)phenyl](5-methylfuran-2-yl)methyl}acetamide]",105 °C
18,"COCc1ccc(CC(=O)NC(c2ccc(C)o2)c2ccc(C)cc2N2CCCCC2)cc1N1CCS(=O)(=O)CC1 (centres unmarked) (as salt: HCl) [Cpd. 62, 2-[3-(1,1-dioxo-1-thiomorpholin-4-yl)-4-(methoxymethyl)phenyl]-N-{[4-methyl-2-(piperidin-1-yl)phenyl](5-methylfuran-2-yl)methyl}acetamide]",87 °C
19,"Cc1ccc(C(NC(=O)Cc2ccc(CO)c(N3CCS(=O)(=O)CC3)c2)c2ccc(C)o2)c(N2CCCCC2)c1 (centres unmarked) (as salt: HCl) [Cpd. 63, 2-[3-(1,1-dioxo-1-thiomorpholin-4-yl)-4-(hydroxymethyl)phenyl]-N-{[4-methyl-2-(piperidin-1-yl)phenyl](5-methylfuran-2-yl)methyl}acetamide]",100 °C
20,"Cc1ccc(C(NC(=O)Cc2ncc(N3CCS(=O)(=O)CC3)cn2)c2ccc(C)o2)c(N2CCCCC2)c1 (centres unmarked) (as salt: HCl) [Cpd. 65, 2-[5-(1,1-dioxo-1-thiomorpholin-4-yl)pyrimidin-2-yl]-N-{[4-methyl-2-(piperidin-1-yl)phenyl](5-methylfuran-2-yl)methyl}acetamide]",99 °C
